Common to all, as to format: in vivo, rat
For experiment [1], the system named is HSP27. The experiment can be described thus: HSP27 induction in the heart after oral administration (Western blotting). The conditions noted are these: oral 200 mg/kg, 24 hours after administration, FIG. 3(A). As to the method:
(§1) An emulsion of 100% by weight of geranylgeranylacetone (GGA) with 5% by weight of gum arabic and 0.008% by weight of tocopherol was given orally to the rats described above. The oral dosages were 50 mg/kg, 100 mg/kg, 200 mg/kg and 400 mg/kg (GGA groups). […] The vehicle was administered orally to the Control Group.
(§2) Next, the hearts were removed from the killed rats and frozen in liquid nitrogen.
(§3) Western blotting was then performed (Maloyan A, Palmon A, Horowitz M. Heat acclimation increases the basal HSP70 level and alters its production dynamics during heat stress. Am J Physiol 1999; 276:R1506-R1515). The frozen hearts were homogenized with SDS (sodium dodecyl sulfate) buffer, centrifuged and boiled.
(§4) The total protein concentration of the myocardium was quantified by the Bradford method (Bradford M M. A rapid and sensitive method for quantitation of microgram quantities of protein utilizing the principle of protein-dye binding. Anal Biochem 1976; 72:248-254). The prepared hearts were then diluted in electrolyte buffer. […] The proteins were detected by exposing the ECL cells with Hyperfilm (Amersham Pharmacia, Buckinghamshire, UK). Based on this, the amount of proteins on the immunoblots was quantified using National Institutes of Health (NIH) imaging software. […]

Experiment [2] concerns thioredoxin. The experiment is described as follows: Thioredoxin induction in the heart after oral administration (Western blotting). The conditions noted are these: oral 200 mg/kg, 24 hours after administration, FIG. 4(B).
Description: (§5) Monoclonal IgG antibody cross-reactive to HSP70, HSP60 and HSP27 antibodies was purchased from Stressgen Biotechnologies Corporation ([…], Canada). Primary antibodies of nitric oxide synthase (NOS) or in other words inducible NOS (iNOS), endothelial NOS (eNOS) and neuronal NOS (nNOS) were purchased from Transduction Laboratories (Lexington, Ky.). The primary antibody of thioredoxin was kindly provided by Professor Yodoi of Kyoto University.
as §1
(§6) Next, the hearts were removed from the killed rats and frozen in liquid nitrogen. […]
(§7) The total protein concentration of the myocardium was quantified by the Bradford method (Bradford M M. A rapid and sensitive method for quantitation of microgram quantities of protein utilizing the principle of protein-dye binding. Anal Biochem 1976; 72:248-254). […] The proteins were detected by exposing the ECL cells with Hyperfilm (Amersham Pharmacia, Buckinghamshire, UK). Based on this, the amount of proteins on the immunoblots was quantified using National Institutes of Health (NIH) imaging software. […]
Background: Immunoblotting shows a protein as a band on a membrane.

Experiment [3] has as its system PKCδ. The experiment can be described thus: Translocation of PKCδ in particulate and cytosolic heart fractions (Western immunoblotting). The conditions noted are these: 24 h after GGA 200 mg/kg oral or vehicle; chelerythrine 5 mg/kg i.v. pretreatment, FIG. 10.
Experiment [4] relates to HSP70. The experiment can be described thus: Effect of chelerythrine pretreatment on GGA-induced HSP70 expression in the heart (Western immunoblotting), Example 2. The conditions noted are these: 24 h after GGA 200 mg/kg oral or vehicle; chelerythrine 5 mg/kg i.v. pretreatment, FIG. 8. As to the method: Male Sprague-Dawley rats (220-250 g) were used. GGA, as an emulsion with 5% gum arabic and 0.008% tocopherol, was given orally at a dose of 200 mg/kg. Rats were classified into 4 groups. FIG. 7 is a diagrammatic representation of experimental protocol. […] Twenty-four hours after oral administration of GGA or vehicle, rats were anesthetized (sodium pentobarbital, 50 mg/kg IP) and heparinized (500 IU/kg IP). Hearts were excised, immediately frozen in liquid nitrogen, and stored at −70° C. until use for Western blot analysis (n=4 for each group). […]
To analyze the expression of HSP70, the frozen heart samples were homogenized with SDS sample buffer (pH 6.8, 20% glycerol, 6% SDS, 0.12M Tris), centrifuged and boiled (Maloyan A, Palmon A, Horowitz M. Heat acclimation increases the basal HSP70 level and alters its production dynamics during heat stress. Am J Physiol. 1999; 276:R1506-R1515.). […] The total protein concentration of heart was quantified by the Bradford method (Bradford MM. A rapid and sensitive method for quantitation of microgram quantities of protein utilizing the principle of protein-dye binding. Anal. Biochem. 1976;72:248-254). […] The proteins were detected by ECL with exposure to Hyperfilm (Amersham Pharmacia). The amount of protein on the immunoblots was quantified using National Institutes of Health image software. […]

Experiment [5] has as its system HSP60. The experiment can be described thus: HSP60 induction in the heart after oral administration (Western blotting). The conditions noted are these: oral 200 mg/kg, 24 hours after administration, FIG. 3(B). The protocol: as §1, §2, §3, §4
Experiment [6] relates to iNOS. The experiment is described as follows: iNOS induction in the heart after oral administration (Western blotting). The conditions noted are these: oral 200 mg/kg, 24 hours after administration, FIG. 4(A).
Description: as §5, §1, §6, §7

On to `CC(=O)CCC=C(C)CCC=C(C)CCC=C(C)CCC=C(C)C` [GGA, 6, 10, 14, 18-tetramethyl-5,9, 13, 17-nonadecatetraen-2-one], for which the “HSP27 expression versus vehicle” value in experiment [1] is given as “no obvious difference”. The “thioredoxin induction in the heart” value in experiment [2] is recorded as “not induced”. In addition, the “PKCδ in the particulate fraction / particulate/cytosol ratio versus CNT group” value in experiment [3] was “significant increase”. The “HSP70 expression in the heart (relative density to control group)” value in experiment [4] is listed as “increased”. Also, the “HSP60 expression versus control group” value in experiment [5] is on record as “significantly decreased”. In experiment [6], the “iNOS induction in the heart” value is reported as “neither iNOS nor eNOS was induced”.

For the origin of these results see patent publication US6846845B2, “Heat shock protein inducer” (Eisai Co., Ltd., priority 2002, dated 2005).
